Experimental data taken from publication PMC7044277 (Nature Communications, 2020).
Values joined by “and” are separate entries in the source; they are usually repeats but may differ in a detail not shown here. Identical values can stand only once.

How the values were obtained:
Type in all cases: cell-based
320 non-olfactory GPCRs [1] = target: T1, 320 non-olfactory GPCRs (Homo sapiens, UniProt P23945)
T1 construct: expressed in transfected cells; host or cells: HTLA cells

320 non-olfactory GPCRs [2] = target: T2, 320 non-olfactory GPCRs (Homo sapiens, UniProt P25089)
T2 construct: expressed in transfected cells; host or cells: HTLA cells

320 non-olfactory GPCRs [3] = target: T3, 320 non-olfactory GPCRs (Homo sapiens, UniProt Q96LB0); conditions: receptor MRGPRX3; replicate values, Fig_4g
T3 construct: expressed in transfected cells; host or cells: HTLA cells

320 non-olfactory GPCRs [4] = target: T4, 320 non-olfactory GPCRs (Homo sapiens, UniProt Q9Y5X5); conditions: receptor NPFF2; replicate values, Fig_4g
T4 construct: expressed in transfected cells; host or cells: HTLA cells
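Wherever Fold of Basal is given: compound tested at 1 µM final concentration.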
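Wherever GPCRome agonism screen response is given: fold over basal response of each receptor without drug.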

T1 sequence (P23945 18-695): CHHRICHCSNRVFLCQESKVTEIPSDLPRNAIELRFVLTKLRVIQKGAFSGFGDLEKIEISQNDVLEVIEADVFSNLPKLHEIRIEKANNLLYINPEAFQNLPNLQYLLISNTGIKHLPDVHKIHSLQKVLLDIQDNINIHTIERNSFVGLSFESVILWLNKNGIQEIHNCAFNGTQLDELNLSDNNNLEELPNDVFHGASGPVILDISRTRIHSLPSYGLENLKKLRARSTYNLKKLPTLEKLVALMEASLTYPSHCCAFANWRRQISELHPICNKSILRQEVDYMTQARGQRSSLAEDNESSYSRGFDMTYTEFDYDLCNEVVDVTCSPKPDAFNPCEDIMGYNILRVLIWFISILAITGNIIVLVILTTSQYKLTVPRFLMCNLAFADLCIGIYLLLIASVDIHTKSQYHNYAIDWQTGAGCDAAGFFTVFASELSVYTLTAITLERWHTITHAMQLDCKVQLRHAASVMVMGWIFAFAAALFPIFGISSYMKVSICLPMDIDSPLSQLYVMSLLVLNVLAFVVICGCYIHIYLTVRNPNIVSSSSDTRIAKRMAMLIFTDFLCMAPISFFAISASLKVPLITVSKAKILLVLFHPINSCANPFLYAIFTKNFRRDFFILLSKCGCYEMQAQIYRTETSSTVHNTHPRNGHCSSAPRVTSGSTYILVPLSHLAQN
T2 sequence (P25089 whole entry): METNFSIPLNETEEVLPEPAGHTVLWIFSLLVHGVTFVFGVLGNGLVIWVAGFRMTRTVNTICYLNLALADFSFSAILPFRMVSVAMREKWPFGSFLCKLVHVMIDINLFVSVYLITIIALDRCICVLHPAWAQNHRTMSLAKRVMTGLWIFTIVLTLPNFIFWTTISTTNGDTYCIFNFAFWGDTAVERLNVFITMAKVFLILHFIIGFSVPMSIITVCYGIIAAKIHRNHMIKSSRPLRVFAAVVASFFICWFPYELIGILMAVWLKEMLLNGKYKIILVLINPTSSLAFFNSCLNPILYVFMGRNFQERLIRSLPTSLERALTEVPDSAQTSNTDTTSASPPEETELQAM
T4 sequence (Q9Y5X5 whole entry): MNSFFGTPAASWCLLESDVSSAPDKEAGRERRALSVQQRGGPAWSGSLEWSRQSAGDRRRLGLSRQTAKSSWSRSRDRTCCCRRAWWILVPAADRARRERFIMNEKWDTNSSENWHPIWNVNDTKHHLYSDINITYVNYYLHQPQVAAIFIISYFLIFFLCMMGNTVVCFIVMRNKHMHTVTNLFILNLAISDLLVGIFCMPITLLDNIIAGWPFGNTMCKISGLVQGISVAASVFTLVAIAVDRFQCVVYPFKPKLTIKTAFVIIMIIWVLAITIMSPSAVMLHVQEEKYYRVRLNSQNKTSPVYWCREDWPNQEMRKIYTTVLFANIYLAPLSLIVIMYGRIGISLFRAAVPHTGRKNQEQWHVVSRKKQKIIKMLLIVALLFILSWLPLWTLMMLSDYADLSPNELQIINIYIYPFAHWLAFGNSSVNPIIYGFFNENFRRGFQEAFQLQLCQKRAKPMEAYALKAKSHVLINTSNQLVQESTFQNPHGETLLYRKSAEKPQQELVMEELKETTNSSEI
T3 sequence (Q96LB0 whole entry): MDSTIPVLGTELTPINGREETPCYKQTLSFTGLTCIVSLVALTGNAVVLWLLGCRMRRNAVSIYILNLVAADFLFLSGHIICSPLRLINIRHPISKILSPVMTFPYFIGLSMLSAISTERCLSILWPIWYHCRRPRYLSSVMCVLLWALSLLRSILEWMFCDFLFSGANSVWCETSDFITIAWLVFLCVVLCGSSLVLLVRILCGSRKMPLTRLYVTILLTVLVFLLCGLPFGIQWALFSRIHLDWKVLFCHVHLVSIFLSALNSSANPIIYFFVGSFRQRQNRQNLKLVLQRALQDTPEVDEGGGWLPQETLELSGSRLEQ

SMILES: CCOc1cccc2cc(C(C)NCC3(O)CCCCC3)oc12 (stereo not shown) [O4LE6]
- Fold of Basal (320 non-olfactory GPCRs [1]): 0.5729 and 0.6139 and 0.617 and 0.5943
- Fold of Basal (320 non-olfactory GPCRs [2]): 1.168 and 1.052 and 1.054 and 1.032
- GPCRome agonism screen response (320 non-olfactory GPCRs [3]): 0.501 and 0.6269 and 0.3987 and 0.4556
- GPCRome agonism screen response (320 non-olfactory GPCRs [4]): 1.684 and 1.1 and 0.9323 and 0.6942
